Source: the supplement of paper PMC12420376

Test system: OVCAR8
Assay: cancer cell viability relative to untreated control; higher = less cytotoxic
Conditions: 72 h
Procedure: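 KURAMOCHI or OVCAR8 cells were grown in monoculture or in co-culture with WI38 or patient-derived 030F fibroblasts and treated for 72 h with a dose matrix of carboplatin combined with birinapant or vorinostat (doses in nM). Cancer cell viability was measured by CK8/18 immunofluorescence imaging and expressed as % of untreated control, given as mean with SD.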

O=C(O)C1(C(=O)O)CCC1.[NH2-].[NH2-].[Pt+2] [Carboplatin] + O=C(CCCCCCC(=O)Nc1ccccc1)NO [Vorinostat]
cancer cell viability [%]
Conditions | partner drug concentration 0 nM | partner drug concentration 1 nM | partner drug concentration 10 nM | partner drug concentration 100 nM | partner drug concentration 1000 nM | partner drug concentration 10000 nM
carboplatin concentration 10 nM, co-cultured fibroblast: 030F | 95.9 | 98.7 | 97.7 | 61.9 | 16.7 | 1.47
carboplatin concentration 10 nM, co-cultured fibroblast: WI38 | 112 | 95.4 | 93.8 | 57.2 | 13 | -0.353
carboplatin concentration 10 nM, co-cultured fibroblast: none (monoculture) | 100 | 118 | 106 | 77.6 | 12.5 | -1.11
carboplatin concentration 100 nM, co-cultured fibroblast: 030F | 97.7 | 88.3 | 82.6 | 53.7 | 17.5 | 0.669
carboplatin concentration 100 nM, co-cultured fibroblast: WI38 | 103 | 98.1 | 88.4 | 53.3 | 11.5 | -0.268
carboplatin concentration 100 nM, co-cultured fibroblast: none (monoculture) | 101 | 108 | 109 | 58.4 | 20.6 | -0.748
carboplatin concentration 1000 nM, co-cultured fibroblast: 030F | 96.9 | 93 | 94.1 | 50.7 | 15.3 | 1.7
carboplatin concentration 1000 nM, co-cultured fibroblast: WI38 | 107 | 96.1 | 86 | 45.4 | 14.6 | -0.251
carboplatin concentration 1000 nM, co-cultured fibroblast: none (monoculture) | 101 | 111 | 102 | 63.4 | 17.2 | -1.67
carboplatin concentration 1e+05 nM, co-cultured fibroblast: 030F | 23.2 | 30.2 | 32.9 | 22.8 | 15.3 | 0.46
carboplatin concentration 1e+05 nM, co-cultured fibroblast: WI38 | 10.6 | 34.2 | 33.1 | 22.9 | 13.3 | -0.83
carboplatin concentration 1e+05 nM, co-cultured fibroblast: none (monoculture) | 23.1 | 57.5 | 51.6 | 24.6 | 17.1 | -3.4
carboplatin concentration 10000 nM, co-cultured fibroblast: 030F | 52.3 | 78.3 | 64.7 | 37.2 | 19.1 | 1.01
carboplatin concentration 10000 nM, co-cultured fibroblast: WI38 | 41.6 | 74.9 | 68.8 | 47.1 | 19 | -0.481
carboplatin concentration 10000 nM, co-cultured fibroblast: none (monoculture) | 56.5 | 89.7 | 89.7 | 65.2 | 26.8 | -0.768

O=C(O)C1(C(=O)O)CCC1.[NH2-].[NH2-].[Pt+2] [Carboplatin] + CC[C@H](NC(=O)[C@H](C)NC)C(=O)N1C[C@@H](O)C[C@H]1Cc1c(-c2[nH]c3cc(F)ccc3c2C[C@@H]2C[C@H](O)CN2C(=O)[C@H](CC)NC(=O)[C@H](C)NC)[nH]c2cc(F)ccc12 [Birinapant]
cancer cell viability [%]
Conditions | partner drug concentration 0 nM | partner drug concentration 0.1 nM | partner drug concentration 1 nM | partner drug concentration 10 nM | partner drug concentration 100 nM | partner drug concentration 1000 nM
carboplatin concentration 10 nM, co-cultured fibroblast: 030F | 95.9 | 93.4 | 86.9 | 85.6 | 53.2 | 11.3
carboplatin concentration 10 nM, co-cultured fibroblast: WI38 | 112 | 112 | 98.5 | 99.2 | 59.9 | 9.28
carboplatin concentration 10 nM, co-cultured fibroblast: none (monoculture) | 100 | 107 | 102 | 96.1 | 68.1 | 14.5
carboplatin concentration 100 nM, co-cultured fibroblast: 030F | 97.7 | 89.9 | 85.8 | 92.3 | 46 | 12.3
carboplatin concentration 100 nM, co-cultured fibroblast: WI38 | 103 | 101 | 102 | 98.1 | 52.4 | 10.8
carboplatin concentration 100 nM, co-cultured fibroblast: none (monoculture) | 101 | 99.5 | 101 | 103 | 71.7 | 13.4
carboplatin concentration 1000 nM, co-cultured fibroblast: 030F | 96.9 | 83.5 | 90.8 | 96.9 | 50.5 | 14.7
carboplatin concentration 1000 nM, co-cultured fibroblast: WI38 | 107 | 98.1 | 104 | 92.6 | 56.6 | 9.2
carboplatin concentration 1000 nM, co-cultured fibroblast: none (monoculture) | 101 | 102 | 98.6 | 105 | 79.7 | 16.3
carboplatin concentration 1e+05 nM, co-cultured fibroblast: 030F | 23.2 | 34.9 | 41.2 | 34.2 | 15.9 | 8.74
carboplatin concentration 1e+05 nM, co-cultured fibroblast: WI38 | 10.6 | 36.2 | 51.3 | 40.3 | 21.4 | 3
carboplatin concentration 1e+05 nM, co-cultured fibroblast: none (monoculture) | 23.1 | 61 | 58.4 | 60.6 | 46.2 | 6.42
carboplatin concentration 10000 nM, co-cultured fibroblast: 030F | 52.3 | 72.4 | 90.8 | 85.1 | 34.3 | 9.13
carboplatin concentration 10000 nM, co-cultured fibroblast: WI38 | 41.6 | 82.3 | 89.1 | 95.9 | 49.7 | 7.2
carboplatin concentration 10000 nM, co-cultured fibroblast: none (monoculture) | 56.5 | 90.3 | 92.5 | 100 | 64.8 | 12.6
